Values after ≈ are worked out from the molar mass of the structure shown. Where two headings read alike, the source gives them in different places.
Tests used:
MRSA_9B = experiment: MIC, CLSI broth microdilution, MRSA clinical strain; type: cell-based, Methicillin resistant S.aureus; conditions: Mueller Hinton broth, 18 hours at 37° C., highest concentration 128 μg/ml
Procedure: (§1) The MICs of the purified compounds were done according to CLSI guidelines using Mueller Hinton broth (Hi media) against panel of six Gram positive bacteria S.aureus, S.epidermidis, B.cereus, B.subtilis, M.luteus and L.monocytogenes, two Gram negative bacteria E.coli and P.aeruginosa, and four MRSA (Methicillin resistant S.aureus) clinical strain. The stock solution of compounds were made at 10 mg/ml in DMSO. The test compounds (highest concentration 128 μg/ml) were serially diluted in 50 μl of Mueller Hinton broth and 50 μl of bacterial suspension were added to reach the final desired cell density of 5×10^5 CFU ml^−1 in each well of 96 well microtiter plate except the media control. The medium, untreated culture, DMSO, ampicillin and kanamycin were used as controls. […] The MICs were defined as the lowest concentration that inhibited visible growth of bacteria.

MRSA_6B = experiment: as above; type: cell-based, Methicillin resistant S.aureus; conditions: Mueller Hinton broth, 18 hours at 37° C., highest concentration 128 μg/ml
Procedure: as §1

MRSA_10B = experiment: as above; type: cell-based, Methicillin resistant S.aureus; conditions: Mueller Hinton broth, 18 hours at 37° C., highest concentration 128 μg/ml
Procedure: as §1

MRSA_3B = experiment: as above; type: cell-based, Methicillin resistant S.aureus; conditions: Mueller Hinton broth, 18 hours at 37° C., highest concentration 128 μg/ml
Procedure: as §1

[1] = tested on: Staphylococcus epidermidis ATCC; experiment: MIC, CLSI broth microdilution; type: cell-based; conditions: Mueller Hinton broth, 18 hours at 37° C., highest concentration 128 μg/ml
Procedure: as §1

[2] = tested on: Staphylococcus aureus ATCC 9144; experiment: MIC, CLSI broth microdilution; type: cell-based; conditions: Mueller Hinton broth, 18 hours at 37° C., highest concentration 128 μg/ml
Procedure: as §1

[3] = tested on: Pseudomonas aeruginosa ATCC 9027; experiment: MIC, CLSI broth microdilution; type: cell-based; conditions: Mueller Hinton broth, 18 hours at 37° C., highest concentration 128 μg/ml
Procedure: as §1

[4] = tested on: Micrococcus luteus ATCC 9341; experiment: MIC, CLSI broth microdilution; type: cell-based; conditions: Mueller Hinton broth, 18 hours at 37° C., highest concentration 128 μg/ml
Procedure: as §1

[5] = tested on: Bacillus subtilis ATCC 6633; experiment: MIC, CLSI broth microdilution; type: cell-based; conditions: Mueller Hinton broth, 18 hours at 37° C., highest concentration 128 μg/ml
Procedure: as §1

[6] = tested on: Bacillus cereus ATCC 11778; experiment: MIC, CLSI broth microdilution; type: cell-based; conditions: Mueller Hinton broth, 18 hours at 37° C., highest concentration 128 μg/ml
Procedure: as §1

[7] = tested on: Listeria monocytogenes ATCC 19111; experiment: MIC, CLSI broth microdilution; type: cell-based; conditions: Mueller Hinton broth, 18 hours at 37° C., highest concentration 128 μg/ml
Procedure: as §1

[8] = tested on: Mycobacterium smegmatis ATCC 607; experiment: MIC, Middlebrook 7H9 medium; type: cell-based; conditions: for MIC: Middlebrook 7H9 medium, 48 hours at 37° C., highest concentration 128 μg/ml
HeLa (Cervical cancer) = experiment: MTT cell viability assay; type: cell-based; conditions: Homo sapiens, 24 hours treatment
Procedure: (§2) MTT assay was used for the study of cell viability, which measured cellular metabolic activity based on the ability of nicotinamide adenine dinucleotide phosphate (NADPH) dependent oxidoreductase enzymes to reduce the yellow tetrazolium salt 3-[4,5-dimethylthiazole-2-yl]-2,5-diphenyltetrazolium bromide (MTT) to purple formazan crystals. The cell lines used for the study were A549 (lung cancer), HeLa (Cervical cancer) and MDA MB-231 (Breast cancer), which were seeded with a density of 10,000 cells/well into 96-well plates and incubated at 37° C. with 5% CO2 for 20 hours. The compounds with different concentrations were used to treat the cells for 24 hours. The medium was replaced with 100 μL of MTT solution (0.5 mg/mL in DMEM) and then incubated for 4 h at 37° C. in dark. Subsequently, MTT solution was removed and the formazan crystals were solubilized by addition of 100 μl DMSO. The optical density was measured at 570 nm by a Biotek synergy H1 microplate reader.

A549 (lung cancer) = experiment: MTT cell viability assay; type: cell-based; conditions: Homo sapiens, A549, 24 hours treatment
Procedure: as §2

[9] = tested on: MDA MB-231 (Breast cancer); experiment: MTT cell viability assay; type: cell-based; conditions: Homo sapiens, MDA-MB-231, 24 hours treatment
Procedure: as §2

[10] = tested on: resistant clinical bacterial strains; experiment: MIC, resistant clinical bacterial strains; type: cell-based, MRSA (Methicillin resistant S.aureus)
Procedure: as §1

Gram-positive bacteria = experiment: MIC, panel of Gram positive bacteria; type: cell-based
Procedure: as §1

[11] = tested on: blood-stage Plasmodium falciparum (3D7 strain); experiment: Antimalarial activity, SYBR green staining-based parasitemia determination; type: cell-based; conditions: P. falciparum 3D7
Procedure: The antimalarial activity was carried out on blood-stage Plasmodium falciparum (3D7 strain) with various concentrations ranging from 10 μM to 0.01 μM by 5 SYBR green staining-based parasitemia determination. Parasite cultures were incubated with the test compounds for 60 h under optimal growth conditions, following which the cells were lysed with 0.01% Triton X and stained with SYBR Green I nucleic acid stain (Thermo Fisher Scientific) to estimate parasite growth and inhibition. Fluorescence readings were obtained with a GloMax plate reader (Promega) after 15 min incubation in the dark and raw fluorescence readings were processed. The % growth inhibition values were estimated from comparisons between test and control samples.

[12] = tested on: MDA-MB-231, A549 and HeLa; experiment: MTT cell viability assay, tested cancer cell lines; type: cell-based
Procedure: as §2

[13] = tested on: Escherichia coli ATCC 8739; experiment: MIC, CLSI broth microdilution; type: cell-based; conditions: ATCC8739, Mueller Hinton broth, 18 hours at 37° C., highest concentration 128 μg/ml
Procedure: as §1

[14] = Staphylococcus aureus, read-out: MIC
[15] = Staphylococcus epidermidis, read-out: MIC
[16] = Staphylococcus aureus, ATCC9144, read-out: MIC
[17] = Micrococcus luteus, ATCC9341, read-out: MIC
[18] = Bacillus subtilis, ATCC6633, read-out: MIC
[19] = Bacillus cereus, ATCC11778, read-out: MIC
[20] = Listeria monocytogenes, ATCC19111, read-out: MIC
[21] = Mycolicibacterium smegmatis, ATCC607, read-out: MIC

SMILES | MIC (MRSA_9B; [14]) | MIC (MRSA_6B; [14]) | MIC (MRSA_10B; [14]) | MIC (MRSA_3B; [14]) | IC50 (HeLa (Cervical cancer)) | IC50 (A549 (lung cancer)) | IC50 [9] | MIC [1, 15] | MIC [2, 16] | MIC [4, 17] | MIC [5, 18] | MIC [6, 19] | MIC [7, 20] | MIC [8, 21] | antibacterial activity against Gram-positive bacteria (Gram-positive bacteria) | antimalarial activity [11] | anticancer activity [12] | other results
CC1(C)S[C@@H]2[C@H](NC(=O)[C@H](N)c3ccccc3)C(=O)N2[C@H]1C(=O)O [Ampicilli, ampicillin, reference compound] |  |  |  |  |  |  |  |  |  |  |  |  |  |  |  |  |  | MIC (MRSA_9B): 16 mg/L (≈ 45.8 µM); MIC (MRSA_6B): 8 mg/L (≈ 22.9 µM); MIC (MRSA_10B): 4 mg/L (≈ 11.4 µM); MIC (MRSA_3B): 8 mg/L (≈ 22.9 µM); MIC [1]: 1 mg/L (≈ 2.86 µM); MIC [2]: 0.03 mg/L (≈ 0.0859 µM); MIC [3]: 2 mg/L (≈ 5.72 µM); MIC [4]: 0.03 mg/L (≈ 0.0859 µM); MIC [5]: 0.03 mg/L (≈ 0.0859 µM); MIC [6]: 16 mg/L (≈ 45.8 µM); MIC [7]: 0.03 mg/L (≈ 0.0859 µM); MIC [8]: 64 mg/L (≈ 183 µM)
CC1OC2OC3C4=C(OC3(C)C12O)C(=O)c1c(O)cccc1C4=O (stereo not drawn) [Compound C-1] | 4 mg/L (≈ 12.1 µM) | 4 mg/L (≈ 12.1 µM) | 4 mg/L (≈ 12.1 µM) | 4 mg/L (≈ 12.1 µM) | 3.53 mg/L | 2.14 mg/L | 1.79 mg/L | 2 mg/L (≈ 6.06 µM) | 2 mg/L (≈ 6.06 µM) | 8 mg/L (≈ 24.2 µM) | 4 mg/L (≈ 12.1 µM) | 8 mg/L (≈ 24.2 µM) | 2 mg/L (≈ 6.06 µM) | 64 mg/L (≈ 194 µM) | good antibacterial activity |  |  | activity against Mycobacterium smegmatis [8]: weakly active; activity against the resistant clinical bacterial strains [10]: active; EC50 ([11]; Plasmodium falciparum, read-out: antimalarial activity (bound)): < 1 µM; IC50 ([12]; read-out: IC50 value range over the tested cancer cell lines): 1.79 to 8.82 mg/L
CC1OC2OC3C(C)(OC4(O)C(=O)c5c(O)cccc5C(=O)C34O)C12O (stereo not drawn) [Compound C-2] |  |  |  |  | 36 mg/L | 44.9 mg/L | 19.1 mg/L |  |  |  |  |  |  |  | weakly active | moderately active | moderate activity | 
CC(C)Cc1nc(C(C)C(=O)O)c(C(C)C)n(O)c1=O (stereo not drawn) [Compound C-4] | 128 mg/L (≈ 453 µM) | 128 mg/L (≈ 453 µM) | 128 mg/L (≈ 453 µM) | 128 mg/L (≈ 453 µM) | 15.4 mg/L | 40.2 mg/L | 14.1 mg/L | 64 mg/L (≈ 227 µM) | 128 mg/L (≈ 453 µM) | 64 mg/L (≈ 227 µM) | 128 mg/L (≈ 453 µM) | 128 mg/L (≈ 453 µM) | 128 mg/L (≈ 453 µM) |  | weakly active | moderately active | moderate activity | 
NC[C@H]1O[C@H](O[C@H]2[C@H](O)[C@@H](O[C@H]3O[C@H](CO)[C@@H](O)[C@H](N)[C@H]3O)[C@H](N)C[C@@H]2N)[C@H](O)[C@@H](O)[C@@H]1O [Kanamycin, kanamycin, reference compound] | 128 mg/L (≈ 264 µM) |  |  |  |  |  |  | 1 mg/L (≈ 2.06 µM) | 8 mg/L (≈ 16.5 µM) | 8 mg/L (≈ 16.5 µM) | 0.5 mg/L (≈ 1.03 µM) | 2 mg/L (≈ 4.13 µM) | 1 mg/L (≈ 2.06 µM) | 0.25 mg/L (≈ 0.516 µM) |  |  |  | MIC ([3]; Pseudomonas aeruginosa, ATCC9027, read-out: MIC): 8 mg/L (≈ 16.5 µM); MIC [13]: 8 mg/L (≈ 16.5 µM)

Reference: patent US20250066380A1, “NOVEL FURANO-NAPHTHOQUINONE AND NOVEL PYRAZINONE COMPOUNDS FROM AMYCOLATOPSIS AND ACTIVITIES THEREOF” (COUNCIL OF SCIENTIFIC AND INDUSTRIAL RESEARCH (AN INDIAN …, priority 2022, published 2025)
